This passage reports GI50 and TGI results from PubChem BioAssay (NCI).

Values joined by “and” are separate entries in the source; they are usually repeats but may differ in a detail not shown here. Identical values can stand only once.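 Exposure lasted 48 hours, with cells grown in 96-well plates and compounds tested at five concentrations. Here, GI50 denotes the concentration required for 50% inhibition of growth. TGI denotes the concentration required for complete inhibition of growth.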 Bounds are passed on as bounds.

Test systems include A549 NSCLC; NCI-H23 lung; SNB-75 CNS; SF-295 CNS; SR leukemia; HT29 colon; SN12C renal; TK-10 renal; RPMI-8226 leukemia; MDA-MB-435.
Common to all, as to experiment: growth of human tumour cells (NCI), 48 h

Consider `COc1cc(/C=C/c2cc(/C=C/c3ccc(O)c(OC)c3)n(C(=O)Nc3ccc(F)cc3)n2)ccc1O`, for which the GI50 in the experiment with A549 NSCLC is 2.44 µM; in the experiment with NCI-H23 lung, 0.727 µM; in the experiment with SNB-75 CNS it was 0.551 µM; with SF-295 CNS, 2.63 µM; in the experiment with SR leukemia it was 0.278 µM; in the experiment on HT29 colon, 2.03 µM. In addition, the GI50 with SN12C renal is 0.953 µM; with TK-10 renal it was 3.43 µM; in the experiment on RPMI-8226 leukemia, 0.454 µM; in the experiment on MDA-MB-435, 0.214 µM. Moreover, the TGI in the experiment on A549 NSCLC turned out to be 18.3 µM; with NCI-H23 lung it was 4.45 µM; in the experiment with SNB-75 CNS, 9.48 µM; with SF-295 CNS, 29.7 µM; with HT29 colon it was 4.69 µM; in the experiment with SN12C renal it was 34.1 µM. Further, the values for the TGI in the experiment on TK-10 renal, in the experiment on RPMI-8226 leukemia and with MDA-MB-435 were 19.2 µM, 3.37 µM and 0.561 µM, respectively.

As for `O=C1c2cccnc2-c2nc(-c3ccccc3[N+](=O)[O-])cc3c2c1nc1ccccc13`, the GI50 in the experiment on A549 NSCLC is 14.4 µM; with NCI-H23 lung, 3.67 µM; in the experiment with SNB-75 CNS, 17.3 µM; in the experiment on SF-295 CNS, 25.9 µM; with SR leukemia it was 96.1 µM; in the experiment on HT29 colon it was 17.2 µM. In addition, the GI50 is 15.6 µM in the experiment on SN12C renal, 14.7 µM in the experiment with TK-10 renal, more than 23.8 µM with RPMI-8226 leukemia and 7.1 µM with MDA-MB-435. Also, the TGI is 30.1 µM with A549 NSCLC; 18.9 µM with NCI-H23 lung; 52 µM in the experiment on SNB-75 CNS; more than 85.9 µM with SF-295 CNS; more than 100 µM in the experiment with SR leukemia; 33.2 µM in the experiment on HT29 colon. In addition, the TGI in the experiment with SN12C renal was 37.9 µM; in the experiment on TK-10 renal, 36.3 µM; with RPMI-8226 leukemia, more than 100 µM; in the experiment on MDA-MB-435 it was 22.2 µM.

Take `Cc1cc(=O)[nH]c2cc3oc4ccccc4c3cc12`: the TGI in the experiment with A549 NSCLC was more than 100 µM; in the experiment on NCI-H23 lung, more than 100 µM; in the experiment on SNB-75 CNS, more than 100 µM; in the experiment with SF-295 CNS, more than 100 µM; in the experiment with SR leukemia, more than 44.3 µM; with HT29 colon it was more than 100 µM. The TGI in the experiment on SN12C renal, with TK-10 renal, in the experiment with RPMI-8226 leukemia and in the experiment on MDA-MB-435 was more than 100 µM in each case.

Take `O=C1NNC(=O)c2ccccc2SSc2ccccc2C(=O)NNC(=O)c2ccccc2SSc2ccccc21`: the GI50 with A549 NSCLC was 11.3 µM; in the experiment on NCI-H23 lung, 7.63 µM; in the experiment on SF-295 CNS, 16.3 µM; in the experiment on SR leukemia it was 3.79 µM; in the experiment on HT29 colon, 20.1 µM; with SN12C renal, 17 µM. In addition, the GI50 in the experiment with TK-10 renal is 70.9 µM; with MDA-MB-435, 16.3 µM. Also, the TGI in the experiment on A549 NSCLC is 50 µM and > 100 µM; with NCI-H23 lung, 50 µM and 59.8 µM; in the experiment with SNB-75 CNS, 50 µM; in the experiment on SF-295 CNS, 50 µM and > 100 µM; in the experiment with SR leukemia, 50 µM and 32.7 µM; in the experiment with HT29 colon, 50 µM and 72.1 µM. In addition, the TGI in the experiment with SN12C renal is 50 µM and > 100 µM; with TK-10 renal, 50 µM and > 100 µM; in the experiment with RPMI-8226 leukemia, 50 µM; in the experiment on MDA-MB-435, 50 µM and > 100 µM.

Consider `CC1=C(C#N)C23C(=O)c4ccccc4C(O)=C2C(=O)C=CC3(O)N1Cc1ccccc1` (configuration not stated), for which the GI50 with A549 NSCLC is 72.2 µM; in the experiment with NCI-H23 lung it was 29.9 µM; in the experiment on SNB-75 CNS, 36.6 µM; in the experiment on SF-295 CNS, 17.6 µM; in the experiment on SR leukemia, 33.7 µM; in the experiment with HT29 colon it was 43.7 µM. Moreover, the GI50 in the experiment on SN12C renal was 52.5 µM; in the experiment on TK-10 renal it was 36.9 µM; with RPMI-8226 leukemia it was 34 µM; in the experiment with MDA-MB-435, 38.6 µM. Moreover, the TGI in the experiment with A549 NSCLC, in the experiment on NCI-H23 lung, in the experiment with SNB-75 CNS, in the experiment with SF-295 CNS, with SR leukemia and in the experiment on HT29 colon was more than 100 µM in each case. The TGI in the experiment on SN12C renal, in the experiment on TK-10 renal, with RPMI-8226 leukemia and with MDA-MB-435 was more than 100 µM throughout.

In the case of `CC(=O)[O][Hg][c]1c(N)c(C)cc(C)c1F`, the GI50 with A549 NSCLC is 9.72 µM; in the experiment on SNB-75 CNS, 1.6 µM; in the experiment on SF-295 CNS it was 7.92 µM; in the experiment on SR leukemia, 0.338 µM; with SN12C renal, 1.36 µM; in the experiment on TK-10 renal it was 1.87 µM. For the same compound, the GI50 in the experiment with RPMI-8226 leukemia was 1.81 µM; with MDA-MB-435, 1.48 µM. The TGI in the experiment with A549 NSCLC turned out to be 28.8 µM; with SNB-75 CNS it was 5.25 µM; with SF-295 CNS it was 21.8 µM; with SN12C renal it was 2.72 µM; in the experiment on TK-10 renal, 3.32 µM; in the experiment with RPMI-8226 leukemia, 6 µM. In the experiment on MDA-MB-435, the TGI was found to be 2.96 µM.

With `CCCCCCCC(=O)SCC/C=C/[C@@H]1CC(=O)NCc2cccc(n2)C2=N[C@@](C)(CS2)C(=O)N[C@@H](C(C)C)C(=O)N1`, the GI50 in the experiment on A549 NSCLC is 0.723 µM; in the experiment with NCI-H23 lung it was 2.1 µM; in the experiment with SNB-75 CNS, 0.223 µM; with SF-295 CNS it was 0.804 µM; in the experiment on SR leukemia it was 0.498 µM; in the experiment with HT29 colon it was 0.181 µM. Besides, the GI50 with SN12C renal was 3.25 µM; in the experiment on TK-10 renal it was 1.09 µM; in the experiment on RPMI-8226 leukemia it was 0.639 µM; in the experiment on MDA-MB-435 it was 0.739 µM. Also, the TGI in the experiment with A549 NSCLC was more than 33.3 µM; with NCI-H23 lung it was more than 33.3 µM; in the experiment with SNB-75 CNS it was more than 33.3 µM; in the experiment on SF-295 CNS, 8.59 µM; with SR leukemia, more than 33.3 µM; in the experiment on HT29 colon, 7.23 µM. The TGI with SN12C renal is more than 33.3 µM; in the experiment on TK-10 renal, 24.8 µM; in the experiment with RPMI-8226 leukemia, more than 33.3 µM; in the experiment on MDA-MB-435, more than 33.3 µM.

Regarding `COC(=O)[C@@H](C)C[C@H](Cc1ccc(F)cc1)NC(=O)c1csc([C@@H](C[C@H](C(C)C)N(C)C(=O)[C@@H](NC(=O)[C@H]2CCCCN2C)C(C)C)OC(C)=O)n1`, the GI50 with A549 NSCLC is 0.00277 µM and 0.0107 µM; in the experiment on NCI-H23 lung, 0.00355 µM and 0.0134 µM; with SNB-75 CNS it was 0.000986 µM and 0.00522 µM; with SR leukemia it was 0.000437 µM and 0.00167 µM; in the experiment on SN12C renal it was 0.00197 µM and 0.013 µM; in the experiment with RPMI-8226 leukemia, 0.00108 µM and 0.00682 µM. The TGI with A549 NSCLC, in the experiment on NCI-H23 lung, in the experiment with SNB-75 CNS, in the experiment on SF-295 CNS, in the experiment with SR leukemia and in the experiment on HT29 colon was more than 16.7 µM in each case. For the same compound, the TGI in the experiment with SN12C renal is more than 16.7 µM; with RPMI-8226 leukemia, more than 16.7 µM; in the experiment on MDA-MB-435, 0.00047 µM and 0.00417 µM.
